Each block holds one compound with its values, some of them ahead of it.
Tested on: K24384-001-R-PDC complex spheroid growth
Experiment: Anticancer human tumor K24384-001-R-PDC patient-derived pancreatic adenocarcinoma cell line growth inhibition [AhR]
Conditions: for IC50: curve of first compound; for viability, T/C: stronger effect = lower value
Outline: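 Spheroids combined tumor cells with HUVEC endothelial cells and human MSCs as stroma. AhR antagonists were paired with standard or investigational drugs, each dosed in half-log steps down from near clinical Cmax, or from 10 microM where Cmax was unknown.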

[1] = second compound 0.1 µM, first compound 0.0316 µM
[2] = second compound 0.1 µM, first compound 0.1 µM
[3] = second compound 0.1 µM, first compound 0.316 µM
[4] = second compound 0.1 µM, first compound 1 µM
[5] = second compound 0.1 µM, first compound 3.16 µM
[6] = second compound 0.1 µM, first compound 10 µM
[7] = second compound 0.316 µM, first compound 0.0316 µM
[8] = second compound 0.316 µM, first compound 0.1 µM
[9] = second compound 0.316 µM, first compound 0.316 µM
[10] = second compound 0.316 µM, first compound 1 µM
[11] = second compound 0.316 µM, first compound 3.16 µM
[12] = second compound 0.316 µM, first compound 10 µM
[13] = second compound 1 µM, first compound 0.0316 µM
[14] = second compound 1 µM, first compound 0.1 µM
[15] = second compound 1 µM, first compound 0.316 µM
[16] = second compound 1 µM, first compound 1 µM
[17] = second compound 1 µM, first compound 3.16 µM
[18] = second compound 1 µM, first compound 10 µM
[19] = second compound 3.16 µM, first compound 0.0316 µM
[20] = second compound 3.16 µM, first compound 0.1 µM
[21] = second compound 3.16 µM, first compound 0.316 µM
[22] = second compound 3.16 µM, first compound 1 µM
[23] = second compound 3.16 µM, first compound 3.16 µM
[24] = second compound 3.16 µM, first compound 10 µM
[25] = second compound 10 µM, first compound 0.0316 µM
[26] = second compound 10 µM, first compound 0.1 µM
[27] = second compound 10 µM, first compound 0.316 µM
[28] = second compound 10 µM, first compound 1 µM
[29] = second compound 10 µM, first compound 3.16 µM
[30] = second compound 10 µM, first compound 10 µM
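Wherever viability, T/C is given: percent of DMSO vehicle-treated spheroid viability set as 100%.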

IC50 (second compound 0.1 µM): 1810 nM | IC50 (second compound 0.316 µM): 1710 nM | IC50 (second compound 1 µM): 1330 nM | IC50 (second compound 3.16 µM): 1410 nM | IC50 (second compound 10 µM): 1500 nM
Structure (SMILES): Nc1ccccc1NC(=O)c1ccc(CNC(=O)OCc2cccnc2)cc1 + Cc1ccccc1N=Nc1ccc(NC(=O)c2ccnn2C)c(C)c1
viability, T/C [1]: 100% | viability, T/C [2]: 93.9% | viability, T/C [3]: 83.2% | viability, T/C [4]: 63.6% | viability, T/C [5]: 37% | viability, T/C [6]: 7.04% | viability, T/C [7]: 105% | viability, T/C [8]: 104% | viability, T/C [9]: 78.2% | viability, T/C [10]: 68.7% | viability, T/C [11]: 32.3% | viability, T/C [12]: 6.55% | viability, T/C [13]: 95.1% | viability, T/C [14]: 94.7% | viability, T/C [15]: 67.9% | viability, T/C [16]: 60.2% | viability, T/C [17]: 30.4% | viability, T/C [18]: 5.37% | viability, T/C [19]: 85.9% | viability, T/C [20]: 78.3% | viability, T/C [21]: 80.6% | viability, T/C [22]: 52.9% | viability, T/C [23]: 34% | viability, T/C [24]: 4.36% | viability, T/C [25]: 81.8% | viability, T/C [26]: 84.1% | viability, T/C [27]: 80.4% | viability, T/C [28]: 54.5% | viability, T/C [29]: 35.2% | viability, T/C [30]: 6.31%

IC50 (second compound 0.1 µM): > 10000 nM | IC50 (second compound 0.316 µM): > 10000 nM | IC50 (second compound 1 µM): > 10000 nM | IC50 (second compound 3.16 µM): > 10000 nM | IC50 (second compound 10 µM): > 10000 nM
Structure (SMILES): O=C(c1cc(Cc2n[nH]c(=O)c3ccccc23)ccc1F)N1CCN(C(=O)C2CC2)CC1 + Cc1ccccc1N=Nc1ccc(NC(=O)c2ccnn2C)c(C)c1
viability, T/C [1]: 86.1% | viability, T/C [2]: 94.5% | viability, T/C [3]: 99.4% | viability, T/C [4]: 83.3% | viability, T/C [5]: 75.8% | viability, T/C [6]: 79.2% | viability, T/C [7]: 99.9% | viability, T/C [8]: 97.2% | viability, T/C [9]: 79.4% | viability, T/C [10]: 86.2% | viability, T/C [11]: 85.8% | viability, T/C [12]: 58% | viability, T/C [13]: 89.9% | viability, T/C [14]: 109% | viability, T/C [15]: 77.4% | viability, T/C [16]: 81.1% | viability, T/C [17]: 66.2% | viability, T/C [18]: 63.2% | viability, T/C [19]: 75.9% | viability, T/C [20]: 80.6% | viability, T/C [21]: 83.2% | viability, T/C [22]: 72.4% | viability, T/C [23]: 60.3% | viability, T/C [24]: 51.6% | viability, T/C [25]: 101% | viability, T/C [26]: 84.1% | viability, T/C [27]: 95.1% | viability, T/C [28]: 72.9% | viability, T/C [29]: 65.2% | viability, T/C [30]: 65.8%

Source: PubChem BioAssay AID1919009 (Molecular Pharmacology Branch, DTP, NCI, 2023)
